In US4604406A, “N-[6-methoxy-5-(perfluoroalkyl)-1-naphtholyl]-N-methylglycines and their thionaphthoyl analogs” (Ayerst, McKenna & Harrison, Inc., priority 1984, dated 1986):

Tests used:
[1] = system: dulcitol accumulation in the diaphragm; test: % lowering dulcitol accumulation in vivo, diaphragm (D), galactosemic rats; parameters: species or system rat (Sprague-Dawley); details: 4 days
Excerpt: (§1) Such experiments are exemplified hereinbelow after the listing of the following general comments pertaining to these experiments:
(§2) (a) Four or more groups of six male rates, 50-70 g, Sprague-Dawley strain, were used. The first group, the control group, was fed a mixture of laboratory chow (rodent laboratory chow, Purina) and glucose at 20% (w/w %) concentration. The untreated galactosemic group was fed a similar diet in which galactose is substituted for glucose. The third group was fed a diet prepared by mixing a given amount of the test compound with the galactose containing diet. The concentration of galactose in the diet of the treated groups was the same as that for the untreated galactosemic group.
(§3) Only two minor reagent changes were made: (a) The rinsing mixture was an aqueous 5% (w/v) trichloroacetic acid solution and (b) the stock solution was prepared by dissolving 25 mg of dulcitol in 100 ml of an aqueous trichloroacetic acid solution. [N.B.: For each experiment the average value found in the tissue from rats fed the glucose diet was subtracted from the individual values found in the corresponding rat tissue to obtain the amount of polyol accumulated.]
(§4) The figures under L, N and D represent the percentage decrease of dulcitol accumulation in the tissues of the lens, sciatic nerve and diaphragm, respectively, for treated rats as compares to untreated rats.

aldose reductase [2] = molecular target: aldose reductase (Bos taurus, UniProt P16116); test: % inhibition in vitro at 10^-7 M (aldose reductase inhibition); assay type: biochemical
[3] = system: dulcitol accumulation in the lens; test: % lowering dulcitol accumulation in vivo, lens (L), galactosemic rats; parameters: species or system rat (Sprague-Dawley); details: 4 days
Excerpt: as §1, §2
(§5) (b) After four days, the animals were killed by decapitation. The eyeballs were removed and punctured with a razor blade; the freed lenses were rolled gently on filter paper and weighed. The sciatic nerves were dissected as completely as possible and weighed. Both tissues were frozen and can be kept up to two weeks before being analyzed for dulcitol.
as §3, §4

dulcitol accumulation = test: galactosemic rats, dulcitol accumulation, overall comparison in words; assay type: in vivo, rat (Sprague-Dawley)
Excerpt: The aldose reductase inhibiting property of the compounds of this invention and the utilization of the compounds in preventing, diminishing and alleviating diabetic complications are demonstrable in experiments using galactosemic rats, see Dvornik et at., cited above. Such experiments are exemplified hereinbelow after the listing of the following general comments pertaining to these experiments:
as §2, §5
as §3, with “(c) The polyol determination was performed by a modification of the procedure of M. Kraml and L. Cosyns, Clin. Biochem., 2,373 (1969). Only” for “Only”
as §4

aldose reductase [4] = molecular target: aldose reductase (Homo sapiens, UniProt P15121); details: literature report; cited from earlier work
[5] = 24.5 mg/kg/day in galactose diet

COc1ccc2c(C(=S)N(C)CC(=O)O)cccc2c1C(F)(F)F [Compound 7, N--[[5-(Trifluoromethyl)-6-methoxy-1-naphthalenyl]thioxomethyl]-N--methylglycine, reference compound]
% lowering dulcitol accumulation in vivo, D ([1]; 11 mg/kg/day in galactose diet): 89%

COc1ccc2c(C(=S)N(C)CC(=O)O)cccc2c1C(F)(F)C(F)(F)C(F)(F)C(F)(F)C(F)(F)C(F)(F)F [Compound 5, N-[[6-Methoxy-5-(tridecafluorohexyl)-1-naphthalenyl]thioxomethyl]-N-methylglycine]
% lowering dulcitol accumulation in vivo, D ([1]; 26 mg/kg/day in galactose diet): 51%
inhibition at 0.1 µM (aldose reductase [2]): 40%
% lowering dulcitol accumulation in vivo, L ([3]; 26 mg/kg/day in galactose diet): 0%

COc1ccc2c(C(=O)N(C)CC(=O)O)cccc2c1C(F)(F)F [Compound 8, N--[ [5-(Trifluoromethyl)-6-methoxy-1-naphthalenyl]carbonyl]-N--methylglycine, reference compound]
% lowering dulcitol accumulation in vivo, D ([1]; 10 mg/kg/day in galactose diet): 20%
inhibition at 0.1 µM (aldose reductase [2]): 57%
% lowering dulcitol accumulation in vivo, L ([3]; 10 mg/kg/day in galactose diet): 0%

COc1ccc2c(C(=S)N(C)CC(=O)O)cccc2c1C(F)(F)C(F)(F)F [Compound 1, N-[[6-methoxy-5-(pentafluoroethyl)-1-naphthalenyl]thioxomethyl]-N-methylglycine]
% lowering dulcitol accumulation in vivo, D [1, 5]: 93%
inhibition at 0.1 µM (aldose reductase [2]): 71%
% lowering dulcitol accumulation in vivo, L [3, 5]: 29%

COc1ccc2c(C(=S)N(C)CC(=O)O)cccc2c1C(F)(F)C(F)(F)C(F)(F)F [Compound 3, N-[[5-(heptafluoropropyl)-6-methoxy-1-naphthalenyl]thioxomethyl]-N-methylglycine]
% lowering dulcitol accumulation in vivo, D ([1]; 5 mg/kg/day in galactose diet): 76%
inhibition at 0.1 µM (aldose reductase [2]): 75%
activity compared with tolrestat at 4 mg/kg/day (dulcitol accumulation; 5 mg/kg/day): superior to tolrestat
activity compared with tolrestat at 11 mg/kg/day (dulcitol accumulation; 5 mg/kg/day): approaches the activity of tolrestat
activity relative to tolrestat (dulcitol accumulation; about twice as active as tolrestat): about twice
% lowering dulcitol accumulation in vivo, L ([3]; 5 mg/kg/day in galactose diet): 20%

COc1ccc2c(C(=O)N(C)CC(=O)O)cccc2c1C(F)(F)C(F)(F)C(F)(F)C(F)(F)C(F)(F)C(F)(F)F [Compound 6, N--[[5-(Tridecafluorohexyl)-6-methoxy-1-naphthalenyl]carbonyl]-N--methylglycine]
% lowering dulcitol accumulation in vivo, D ([1]; 25 mg/kg/day in galactose diet): 0%
inhibition at 0.1 µM (aldose reductase [2]): 47%
% lowering dulcitol accumulation in vivo, L ([3]; 25 mg/kg/day in galactose diet): 0%

COc1ccc2c(C(=O)N(C)CC(=O)O)cccc2c1C(F)(F)C(F)(F)C(F)(F)F [Compound 4, N-[[5-(heptafluoropropyl)-6-methoxy-1-naphthalenyl]carbonyl]-N-methylglycine]
% lowering dulcitol accumulation in vivo, D ([1]; 10 mg/kg/day in galactose diet): 38%
inhibition at 0.1 µM (aldose reductase [2]): 63%
activity compared with compound No. 7 (tolrestat) at 11 mg/kg/day (dulcitol accumulation; 10 mg/kg/day): comparable results
% lowering dulcitol accumulation in vivo, L ([3]; 10 mg/kg/day in galactose diet): 19%

COc1ccc2c(C(=O)N(C)CC(=O)O)cccc2c1C(F)(F)C(F)(F)F [Compound 2, N-[[6-Methoxy-5-(pentafluoroethyl)-1-naphthalenyl]carbonyl]-N-methylglycine]
% lowering dulcitol accumulation in vivo, D ([1]; 29 mg/kg/day in galactose diet): 68%
inhibition at 0.1 µM (aldose reductase [2]): 56%

O=C(O)CN1C(=O)c2cccc3cccc(c23)C1=O [1,3-Dioxo-1H-benz[de]isoquinoline-2(3H)-acetic acid]
inhibition of aldose reductase (aldose reductase [4]): effective inhibitor of aldose reductase

O=C1NC(=O)[C@@]2(CCOc3ccc(F)cc32)N1 [sorbinol, (S)-6-Fluoro-2,3-dihydrospiro(4H-1-benzopyran-4,4'-imidazolidine)-2',5'-dione]
inhibition of aldose reductase (aldose reductase [4]): aldose reductase inhibiting properties
